Experimental data taken from the NIST ThermoML archive (doi:10.1021/acs.jced.7b00690).
Numbers after ± are expanded uncertainties.

Assay: mn = molality of the nth substance listed, in mol/kg
Conditions: 100 kPa, Liquid, Vibrating tube method

O=C([O-])C(=O)[O-].[Na+].[Na+] [sodium oxalate] + O
Conditions	mass density [kg/m3]
298.15 K, m1 = 0.263	1025.1 ± 55
298.15 K, m1 = 0.265	1020.9 ± 12
298.15 K, m1 = 0.272	1020.9 ± 8
323.15 K, m1 = 0.317	1020.3 ± 8.9
323.15 K, m1 = 0.334	1022.4 ± 9
343.15 K, m1 = 0.385	1016.5 ± 9.5
